The values below come from patent US9387204B2, “Fused bicyclic imidazoles” (BAYER INTELLECTUAL PROPERTY GmbH, priority 2007, dated 2016).

For this assay, the system named is A549 cells. Kind of assay: Cellular proliferation/cytotoxicity assay (Alamar Blue), A549 cells. The conditions noted are these: Homo sapiens, A549, 72 h, read-out: Anti-proliferative/Cytotoxic activity (A549 cells).
`c1ccc(-c2c(-c3ccc(CN4CCC(c5n[nH]c(-c6ccccn6)n5)CC4)cc3)nc3ncccn23)cc1` [Example 1, 3-phenyl-2-(4-{[4-(5-pyridin-2-yl-1,2,4-triazol-3-yl)piperidin-1-yl]methyl}phenyl)imidazo[1,2-a]pyrimidine]: the IC50 is > 10 µM. As to `c1ccc(-c2c(-c3ccc(CN4CCC(c5n[nH]c(-c6ccccn6)n5)CC4)cc3)nc3ccccn23)cc1` [Example 2, 3-phenyl-2-(4-{[4-(5-pyridin-2-yl-1H-1,2,4-triazol-3-yl)piperidin-1-yl]methyl}phenyl)imidazo[1,2-a]pyridine], the IC50 is < 10 µM. To `c1ccc(-c2c(-c3ccc(CN4CCC(c5nc(-c6cnccn6)no5)CC4)cc3)nc3ncccn23)cc1` [Example 4, 3-phenyl-2-(4-{[4-(3-pyrazin-2-yl-1,2,4-oxadiazol-5-yl)piperidin-1-yl]methyl}phenyl)imidazo[1,2-a]pyrimidine] belongs > 10 µM; to `Brc1ccc2nc(-c3ccc(CN4CCC(c5n[nH]c(-c6ccccn6)n5)CC4)cc3)c(-c3ccccc3)n2c1` [Example 6, 6-bromo-3-phenyl-2-(4-{[4-(5-pyridin-2-yl-1,2,4-triazol-3-yl)piperidin-1-yl]methyl}phenyl)imidazo[1,2-a]pyridine], < 10 µM; to `Clc1ccc2nc(-c3ccc(CN4CCC(c5nnc(-c6ccccn6)[nH]5)CC4)cc3)c(-c3ccccc3)n2c1` [Example 7, 6-chloro-3-phenyl-2-(4-{[4-(5-pyridin-2-yl-4H-1,2,4-triazol-3-yl)piperidin-1-yl]methyl}phenyl)imidazo[1,2-a]pyridine], < 10 µM. As to `Cc1cccn2c(-c3ccccc3)c(-c3ccc(CN4CCC(c5n[nH]c(-c6ccccn6)n5)CC4)cc3)nc12` [Example 8, 8-methyl-3-phenyl-2-(4-{[4-(5-pyridin-2-yl-1,2,4-triazol-3-yl)piperidin-1-yl]methyl}phenyl)imidazo[1,2-a]pyridine], the IC50 was < 10 µM. With `Fc1ccc(-c2c(-c3ccc(CN4CCC(c5n[nH]c(-c6ccccn6)n5)CC4)cc3)nc3ccccn23)cc1` [Example 9, 3-(4-fluorophenyl)-2-(4-{[4-(5-pyridin-2-yl-1,2,4-triazol-3-yl)piperidin-1-yl]methyl}phenyl)imidazo[1,2-a]pyridine], the IC50 is < 10 µM. With `c1ccc(-c2c(-c3ccc(CN4CCC(c5n[nH]c(-c6ccccn6)n5)CC4)cc3)nc3sccn23)cc1` [Example 10, 5-phenyl-6-(4-{[4-(5-pyridin-2-yl-1,2,4-triazol-3-yl)piperidin-1-yl]methyl}phenyl)imidazo[2,1-b][1,3]thiazole], the IC50 was < 10 µM. With `c1ccc(-c2c(-c3ccc(CN4CCC(c5n[nH]c(-c6ccccn6)n5)CC4)cc3)nc3scnn23)cc1` [Example 11, 5-phenyl-6-(4-{[4-(5-pyridin-2-yl-1,2,4-triazol-3-yl)piperidin-1-yl]methyl}phenyl)imidazo[2,1-b][1,3,4]thiadiazole], the IC50 was < 10 µM.

As for `Brc1cnc2nc(-c3ccc(CN4CCC(c5n[nH]c(-c6ccccn6)n5)CC4)cc3)c(-c3ccccc3)n2c1` [Example 12, 6-bromo-3-phenyl-2-(4-{[4-(5-pyridin-2-yl-1,2,4-triazol-3-yl)piperidin-1-yl]methyl}phenyl)imidazo[1,2-a]pyrimidine], the IC50 was < 10 µM. Consider `COc1cccn2c(-c3ccccc3)c(-c3ccc(CN4CCC(c5n[nH]c(-c6ccccn6)n5)CC4)cc3)nc12` [Example 13, 8-methoxy-3-phenyl-2-(4-{[4-(5-pyridin-2-yl-1,2,4-triazol-3-yl)piperidin-1-yl]methyl}phenyl)imidazo[1,2-a]pyridine], for which the IC50 was < 10 µM. To `Fc1cccc(-c2c(-c3ccc(CN4CCC(c5n[nH]c(-c6ccccn6)n5)CC4)cc3)nc3ccccn23)c1` [Example 14, 3-(3-fluorophenyl)-2-(4-{[4-(5-pyridin-2-yl-1,2,4-triazol-3-yl)piperidin-1-yl]methyl}phenyl)imidazo[1,2-a]pyridine] belongs < 10 µM; to `COc1ccc(-c2c(-c3ccc(CN4CCC(c5n[nH]c(-c6ccccn6)n5)CC4)cc3)nc3ccccn23)cc1` [Example 15, 3-(4-methoxyphenyl)-2-(4-{[4-(5-pyridin-2-yl-1,2,4-triazol-3-yl)piperidin-1-yl]methyl}phenyl)imidazo[1,2-a]pyridine], < 10 µM; to `c1ccc(-c2nc(C3CCN(Cc4ccc(-c5nc6ccccn6c5-c5ccncc5)cc4)CC3)n[nH]2)nc1` [Example 16, 3-pyridin-4-yl-2-(4-{[4-(5-pyridin-2-yl-1,2,4-triazol-3-yl)piperidin-1-yl]methyl}phenyl)imidazo[1,2-a]pyridine], > 10 µM. In the case of `c1ccc(-c2nc(C3CCN(Cc4ccc(-c5nc6ccccn6c5-c5cccs5)cc4)CC3)n[nH]2)nc1` [Example 17, 2-(4-{[4-(5-pyridin-2-yl-1,2,4-triazol-3-yl)piperidin-1-yl]methyl}phenyl)-3-(2-thienyl)imidazo[1,2-a]pyridine], the IC50 was < 10 µM. As to `Fc1ccc(-c2c(-c3ccc(CN4CCC(c5n[nH]c(-c6ccccn6)n5)CC4)cc3)nc3ncccn23)cc1` [Example 18, 3-(4-fluorophenyl)-2-(4-{[4-(5-pyridin-2-yl-1,2,4-triazol-3-yl)piperidin-1-yl]methyl}phenyl)imidazo[1,2-a]pyrimidine], the IC50 is > 10 µM. Then `Cc1ccn2c(-c3ccccc3)c(-c3ccc(CN4CCC(c5n[nH]c(-c6ccccn6)n5)CC4)cc3)nc2n1` [Example 19, 7-methyl-3-phenyl-2-(4-{[4-(5-pyridin-2-yl-1,2,4-triazol-3-yl)piperidin-1-yl]methyl}phenyl)imidazo[1,2-a]pyrimidine], with < 10 µM; and `COc1ccc(-c2c(-c3ccc(CN4CCC(c5n[nH]c(-c6ccccn6)n5)CC4)cc3)nc3ncccn23)cc1` [Example 20, 3-(4-methoxyphenyl)-2-(4-{[4-(5-pyridin-2-yl-1,2,4-triazol-3-yl)piperidin-1-yl]methyl}phenyl)imidazo[1,2-a]pyrimidine], with > 10 µM; and `Clc1cnc2nc(-c3ccc(CN4CCC(c5n[nH]c(-c6ccccn6)n5)CC4)cc3)c(-c3ccccc3)n2c1` [Example 21, 6-chloro-3-phenyl-2-(4-{[4-(5-pyridin-2-yl-1,2,4-triazol-3-yl)piperidin-1-yl]methyl}phenyl)imidazo[1,2-a]pyrimidine], with < 10 µM. Regarding `Fc1ccc2nc(-c3ccc(CN4CCC(c5n[nH]c(-c6ccccn6)n5)CC4)cc3)c(-c3ccccc3)n2c1` [Example 22, 6-fluoro-3-phenyl-2-(4-{[4-(5-pyridin-2-yl-1,2,4-triazol-3-yl)piperidin-1-yl]methyl}phenyl)imidazo[1,2-a]pyridine], the IC50 is > 10 µM. For `Ic1cnc2nc(-c3ccc(CN4CCC(c5n[nH]c(-c6ccccn6)n5)CC4)cc3)c(-c3ccccc3)n2c1` [Example 23, 6-iodo-3-phenyl-2-(4-{[4-(5-pyridin-2-yl-1,2,4-triazol-3-yl)piperidin-1-yl]methyl}phenyl)imidazo[1,2-a]pyrimidine], the IC50 is > 10 µM. `COc1ccn2c(-c3ccccc3)c(-c3ccc(CN4CCC(c5n[nH]c(-c6ccccn6)n5)CC4)cc3)nc2n1` [Example 24, 7-methoxy-3-phenyl-2-(4-{[4-(5-pyridin-2-yl-1,2,4-triazol-3-yl)piperidin-1-yl]methyl}phenyl)imidazo[1,2-a]pyrimidine]: the IC50 is < 10 µM. Consider `Brc1cccn2c(-c3ccccc3)c(-c3ccc(CN4CCC(c5n[nH]c(-c6ccccn6)n5)CC4)cc3)nc12` [Example 25, 8-bromo-3-phenyl-2-(4-{[4-(5-pyridin-2-yl-1,2,4-triazol-3-yl)piperidin-1-yl]methyl}phenyl)imidazo[1,2-a]pyridine], for which the IC50 was < 10 µM.

Consider `Clc1nccn2c(-c3ccccc3)c(-c3ccc(CN4CCC(c5n[nH]c(-c6ccccn6)n5)CC4)cc3)nc12` [Example 26, 8-chloro-3-phenyl-2-(4-{[4-(5-pyridin-2-yl-1,2,4-triazol-3-yl)piperidin-1-yl]methyl}phenyl)imidazo[1,2-a]pyrazine], for which the IC50 was > 10 µM. Consider `COc1nccn2c(-c3ccccc3)c(-c3ccc(CN4CCC(c5n[nH]c(-c6ccccn6)n5)CC4)cc3)nc12` [Example 27, 8-methoxy-3-phenyl-2-(4-{[4-(5-pyridin-2-yl-1,2,4-triazol-3-yl)piperidin-1-yl]methyl}phenyl)imidazo[1,2-a]pyrazine], for which the IC50 is < 10 µM. Consider `FC(F)(F)c1ccn2c(-c3ccccc3)c(-c3ccc(CN4CCC(c5n[nH]c(-c6ccccn6)n5)CC4)cc3)nc2n1` [Example 28, 3-phenyl-2-(4-{[4-(5-pyridin-2-yl-1,2,4-triazol-3-yl)piperidin-1-yl]methyl}phenyl)-7-(trifluoromethyl)imidazo[1,2-a]pyrimidine], for which the IC50 is > 10 µM. Turning to `N#Cc1ccn2c(-c3ccccc3)c(-c3ccc(CN4CCC(c5n[nH]c(-c6ccccn6)n5)CC4)cc3)nc2c1` [Example 29, 3-phenyl-2-(4-{[4-(5-pyridin-2-yl-1,2,4-triazol-3-yl)piperidin-1-yl]methyl}phenyl)imidazo[1,2-a]pyridine-7-carbonitrile], the IC50 was > 10 µM. Then `c1ccc(-c2c(-c3ccc(CN4CCC(c5cc(-c6ccccn6)n[nH]5)CC4)cc3)nc3ncccn23)cc1` [Example 30, 3-phenyl-2-(4-{[4-(3-pyridin-2-yl-pyrazol-5-yl)piperidin-1-yl]methyl}phenyl)imidazo[1,2-a]pyrimidine], with > 10 µM; and `COc1ccc2nc(-c3ccc(CN4CCC(c5n[nH]c(-c6ccccn6)n5)CC4)cc3)c(-c3ccccc3)n2n1` [Example 32, 6-methoxy-3-phenyl-2-(4-{[4-(5-pyridin-2-yl-1,2,4-triazol-3-yl)piperidin-1-yl]methyl}phenyl)imidazo[1,2-b]pyridazine], with < 10 µM; and `c1ccc(-c2nc(C3CCN(Cc4ccc(-c5nc6ncccn6c5-c5ccsc5)cc4)CC3)n[nH]2)nc1` [Example 34, 2-(4-{[4-(5-pyridin-2-yl-1,2,4-triazol-3-yl)piperidin-1-yl]methyl}phenyl)-3-(3-thienyl)imidazo[1,2-a]pyrimidine], with > 10 µM.
